Data reported in US20150004636A1, “NEURONAL BIOSENSOR FOR DETECTION OF TOXINS” (priority 2011, published 2015).
Where two headings read alike, the source gives them in different places.

Columns and labels:
Assay type in all cases: cell-based, chick
[1] = tested on: DRG neurons
Protocol: For microscopy experiments, holes were drilled in the bottom of 35 mm tissue culture dishes with a 7/32″ drill bit and drill press. Etching was performed on 12 mm round glass coverslips that were submerged in 300 ml of boiling 18 MΩ H2O containing 7.5 g Alconox detergent for 30 minutes. The coverslips were then rinsed with 18MΩ H2O and dried in a 150 mm Petri dish in a laminar flow hood. A section of Tygon tubing (0.5 inch long, 0.5 inch inner diameter, and 0.75 inch outer diameter) was used to apply Dow Corning 732 multi-purpose sealant to the bottom of the tissue culture dishes just around the hole that was drilled previously. Forceps were used to press one round glass coverslip to the bottom of each tissue culture dish until a continuous seal was formed around the hole. The tissue culture dishes were laid in a fume hood to dry. Exposure to ultraviolet light for at least an hour or treatment with ethanol for approximately 30 seconds was used to sterilize the dishes. Type VII collagen, to promote cell adhesion to the glass coverslip, was added to each dish for coating and allowed to air dry in the laminar flow hood to maintain sterility. Once the dishes were dry, the lids were placed back on the dishes and the edges of the Petri dishes were then wrapped in Parafilm and stored in a 4° C. refrigerator before use.
Focusing on the FM® dye, the dye was thawed at room temperature and vortexed. A 30 μM FM® dye solution was made with 1×HBSS. The solution was heated to 37° C. and vortexed just before each cell staining experiment. The cells were exposed to the FM® dye solution for 5-10 min before imaging.
The media was removed from the 35 mm tissue culture dish using a micropipette. The surface was then rinsed once with 1 ml HBSS. […]
DRG neurons stained with FM® 4-64 were imaged before exposure to 100 μM ionomycin. […] Over the 10 min of imaging, the samples were moving out of focus and the focus was readjusted intermittently for more consistent images. […]

[2] = tested on: DRG neurons; remark: listed apart in the source
[3] = tested on: dorsal root ganglia (DRG) neurons
Protocol: The eggs were incubated for 10 days before dissection in a dark egg incubator with motion at a dry temperature of 86-100° F. and wet temperature of 84-86° F. From the ventral side, the spines of the embryos were exposed, the kidneys were removed one at a time under higher dissecting power carefully so as not to remove the nerve chains situated just below the kidney along the ventral side of the spinal cord. The DRGs were each dissected from the area between the bottom of the ribs and the posterior end of the embryo, placed in a tissue culture dish containing F12 media. DRGs from 12 embryos were transferred with a fire-polished Louis Pasteur pipette to a sterile 15 ml tube. After the DRGs settled to the bottom of the tube, a pipette was used to carefully remove the F12 media, avoiding removal of any DRGs. Ten mLs of 5% trypsin were added to the tube with DRGs, mixed, and incubated for 30 minutes in a 37° C. water bath. Every 10 minutes of incubation the tube was removed from the water bath and tapped to mix the DRGs and allow the trypsin to digest connective tissue to separate the neurons. After incubation, trypsin was removed using a pipette. The cells were rinsed with 2 ml of Neurobasal media 2-3 times by adding media, allowing the DRGs to settle to the bottom of the tube before removing the media, and adding another 2 ml of media. After the final rinse, the volume was brought up to 1 ml and the dissociated neurons were triturated with a medium-sized, then a small-sized, fire-polished Louis Pasteur pipette until the cell solution appeared cloudy and no individual DRGs were present in the media. A small amount of the solution was transferred to a hemocytometer and the single cells were counted. The cell solution was diluted so that 10-15×10^4 cells were added to an Alconox® treated, 0.1 mg/ml collagen coated, 25 mm diameter round glass coverslip in a 35 mm dish with 2 ml of Neurobasal media. The DRGs were incubated in 5% CO2 at 37° C. for 2-3 days before experimentation. Approximately 1 mL of media was replaced with new media every other day until experiments began.
Experiments began 2-3 days after neurons were plated. A dish of neurons was washed with 1×HBSS then 1×HBSS+1 mg/ml bovine serum albumin (BSA) before the cells were bathed in 4 μM Fura-2AM in 1×HBSS+BSA for incubation for 45 min at 37° C. in 5% CO2. The cells were washed 4× with 1×HBSS and incubated for another 20-60 min in 1×HBSS. A coverslip containing the neurons was removed after the final wash and placed in an apparatus for calcium imaging.
All toxins including nicotine, boric acid, ionomycin, glutamate, and glycine were prepared in 1×HBSS according to their final concentrations (Table 3).
The coverslip containing the neurons was placed in a perfusion apparatus onto an Olympus IX70 microscope equipped with a 20× fluorescence objective, a Mercury lamp and filter sets that optimized the Fura-2 excitation ([…]) and emission wavelengths (510 nm). The cells were bathed continuously by perfusion of solutions at ˜4.7 mL/min. The cells were bathed with 1×HBSS during software setup and for resting Ca^2+ measurements before exposure to stimulating or toxic solutions. InCyt Im2™ software was used to measure the emission intensities and convert to Ca^2+ concentrations. Only designated areas of each neuron soma were chosen for measurements. Calibration curves were generated for conversion of light intensity emitted per excitation wavelength using standard Ca^2+ solutions in the free acid form of Fura-2 to convert emitted light intensity to Ca^2+ concentration. Each experiment began with 3 min wash with HBSS to establish resting intracellular Ca^2+ measurements. Depending on the toxin used, the neurons were then exposed to a flow of toxic/stimulating solution for 5-10 min. Each experiment ended with a 1 min. wash of HBSS to determine reversal or change of the stimulating/toxic solution. […]

[4] = tested on: DRG neurons; test: Fluorescence spectroscopy of FM 4-64 labeled DRG neurons
Protocol: For spectroscopy experiments, DRG neurons were grown on 11×22 mm plastic coverslips that were treated with Alconox and coated with Type VII rat tail collagen, using the same methods that were mentioned previously. Cells were plated with ˜15×10^4 cells in each 35 mm tissue culture dish containing one plastic coverslip. The cells were incubated in 5% CO2 at 37° C. for 2 days before experiments began.
Before scanning the cell samples, the coverslip was mounted into a coverglass holder and was held inside a cuvette at a 45° angle from the light source and the photo detector. The coverglass holder was placed in a cuvette containing 1×HBSS to rinse the media from the cells prior to the experiments. For the spectroscopy experiments, the coverglass holder was placed in the cuvette that was filled with either 1×HBSS or stimulating solutions. The orientation of the coverglass in the cuvette was situated so that the cell surface was facing the light source and photodetector, both at 45° angles. For experiments using FM® 4-64, scan were conducted using a HORIBA Jobin Yvon FluoroLog®-3 spectrofluorometer with an excitation wavelength of 558 nm and an emission range was detected from 566 to 750 nm. The slit width for excitation and emission was 3 nm and data was collected every 0.2 sec, once for each wavelength. Fluorescence intensity was detected in counts per second (cps). The data was transferred into MS Excel and analyzed using Matlab.
In Matlab, the maximum intensity of each scan was found for the emission wavelength range of interest and the ratio of the maximum emission intensities was taken between non-labeled, non-stimulated cells and FM®-labeled cells before and after stimulation. This ratio was used to determine the difference in fluorescence, and therefore the amount of stained membranes present in the sample before and after stimulation with ionomycin.
To determine whether a change in fluorescence of FM®-labeled neurons could be measured, the cells were stained and stimulated using the same methods mentioned above. Four emission scans were performed: a control scan of the non-labeled neurons in HBSS, a scan of the FM®-labeled neurons in HBSS, a scan of the FM® labeled neurons in ionomycin 5 min after initial stimulation, and a scan of the post stimulated, FM®-labeled neurons in 1×HBSS wash. The cells were rinsed with warm 1×HBSS before each scan, and the cells were stimulated for a total of 10 min before rinsed with 1×HBSS for the fourth scan. The ratio of fluorescence intensities of non-labeled neurons to FM®-labeled neurons, FM®-labeled ionomycin-stimulated neurons, and FM®-labeled ionomycin-stimulated rinsed neurons in Table 5.

[5] = 10 min, 50 mM boric acid, 500 μM glutamate or 100 μM nicotine
[6] = FM-labeled neurons after 10 min ionomycin stimulation, rinsed in 1×HBSS
[7] = FM-labeled neurons, 5 min in ionomycin

CCN(CC)c1ccc(/C=C/C=C/C=C/c2cc[n+](CCC[N+](CC)(CC)CC)cc2)cc1.[Br-].[Br-] [FM® 4-64]
staining of DRG neuron membranes ([1]; 30 μM FM 4-64 in 1×HBSS): complete staining of the cell membranes around the soma and axons

[Cl-].[K+] [KCl, potassium chloride]
migration of FM 4-64 dye in stained neurons ([2]; 50 mM KCl, 10 min after addition): some migration of FM® dye throughout the DRG neurons
cell morphology in phase images during stimulation ([2]; 50 mM KCl, 10 min of stimulation): some swelling in small parts of axons
mean intracellular Ca2+ concentration during stimulation ([3]; 50 mM KCl, n=104): 511 nM

OB(O)O [boric acid]
axon morphology after stimulation [2]: swollen axons
differences in membrane structure before vs after treatment [2]: very little differences to no differences
migration of FM 4-64 dye in stained neurons [2]: no migration of FM® 4-64 throughout the cells
change of intracellular Ca2+ compared to resting [3]: slight, but significant, decrease
mean intracellular Ca2+ concentration during stimulation [3]: 58 nM

N[C@@H](CCC(=O)O)C(=O)O [glutamate]
axon morphology after stimulation [2, 5]: swollen axons
migration of FM 4-64 dye in stained neurons [2, 5]: no migration of FM® 4-64 throughout the cells
percent of cells that responded with an increase of intracellular Ca2+ ([3]; 100 μM glutamate): 21%
percent of cells without obvious increase of intracellular Ca2+ (non-responding) ([3]; 100 μM glutamate): 79%
average intracellular Ca2+ concentration, responding cells ([3]; 100 μM glutamate, n=27, resting 68.7 nM): 301 nM
average intracellular Ca2+ concentration, non-responding cells ([3]; 100 μM glutamate, n=100, resting 67 nM): 71 nM
percent of cells that responded with an increase of intracellular Ca2+ ([3]; 500 μM glutamate): 34%
percent of cells without obvious increase of intracellular Ca2+ (non-responding) ([3]; 500 μM glutamate): 66%
average intracellular Ca2+ concentration, responding cells ([3]; 500 μM glutamate, n=75, resting 82): 352 nM
average intracellular Ca2+ concentration, non-responding cells ([3]; 500 μM glutamate, n=146, resting 84 nM): 88 nM
percent of cells that responded with an increase of intracellular Ca2+ ([3]; 1 mM glutamate): 15%
percent of cells without obvious increase of intracellular Ca2+ (non-responding) ([3]; 1 mM glutamate): 85%
average intracellular Ca2+ concentration, non-responding cells ([3]; 1 mM glutamate, n=38, resting 79 nM): 87 nM

C[C@H](CCC(=O)O)C[C@H](C)C[C@H](C)C(=O)/C=C(\O)[C@H](C)C[C@H](C)C/C=C/[C@@H](C)[C@@H](O)[C@@H](C)[C@@H](O)C[C@@H]1CC[C@@](C)([C@H]2CC[C@@](C)([C@@H](C)O)O2)O1 [ionomycin]
mean intracellular Ca2+ concentration during stimulation ([3]; ~100 μM ionomycin, highest time points averaged, n=228): 988 nM
change of intracellular Ca2+ compared to resting ([3]; ~100 μM ionomycin, positive control): large and irreversible
Fluorescence Intensity at 667 nm [4, 6]: 2238 cps
Fluorescence Intensity at Peak Emission Wavelength [4, 6]: 2362 cps
Peak Emission Wavelength [4, 6]: 676 nm
Fluorescence Intensity at 667 nm [4, 7]: 3303 cps
Fluorescence Intensity at Peak Emission Wavelength [4, 7]: 3719 cps
Peak Emission Wavelength [4, 7]: 684 nm
Ratio of Fluorescence Intensities at 667 nm ([4]; FM-labeled neurons, 5 min in ionomycin vs non-labeled neurons): 2.05
Ratio of Fluorescence Intensities at 667 nm ([4]; after 10 min ionomycin stimulation, rinsed in 1×HBSS vs non-labeled neurons): 1.39
cell morphology in phase images during stimulation ([1]; 100 μM ionomycin, up to 10 min): shrinkage of the cell soma
migration of FM 4-64 dye in stained neurons ([1]; 100 μM ionomycin, within the first 25 sec of stimulation): migrated from the membranes of the axons into the soma

CN1CCCC1c1cccnc1 (stereo not shown) [nicotine]
axon morphology after stimulation [2]: swollen axons
migration of FM 4-64 dye in stained neurons [2]: no migration of FM® 4-64 throughout the cells
change of intracellular Ca2+ compared to resting [3]: only a few cells experiencing an increase in intracellular Ca^2+
